This test concerns CEM cells HIV-1 protection, formazan growth assay. In words: NCI AIDS Antiviral Assay. Particulars: for IC50: measured here: growth of uninfected CEM cells. An outline of the steps:
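Protection of CEM cells against HIV-1 measured as cell growth via soluble formazan read-out, with five concentrations tested on both infected and uninfected cells; failure to protect may reflect toxicity.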

The values that follow come from PubChem BioAssay AID179 (DTP/NCI, 2004).

Where “and” joins values, the source holds several entries; their conditions need not be identical. Equal values may be shown once. Calls of active or inactive are those of the source.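 The calls were made as follows: active = compounds giving half or more protection of infected cells from virus-caused growth loss, again on retest; inactive = the rest.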 Where a SMILES comes first, the peptide text is derived from it. [ ]: non-standard residue; d: D form. The star is where a group is joined. NMeAc5c = CNC1(C(=O)O)CCCC1; Cbz = O=C(OCc1ccccc1)*; Boc = CC(C)(C)OC(=O)*; OBn = c1ccc(CO*)cc1; tBu = CC(C)(C)*

Usually EC50 stands for the midpoint of the concentration-response curve. For orientation: IC50 means the concentration that gives 50% inhibition.

As to `Cc1cc(N=Nc2ccc(NC(=O)c3ccc(N)cc3)cc2C)ccc1N=Nc1ccc2c(O)c(N=Nc3ccc(S(=O)(=O)O)cc3)c(S(=O)(=O)O)cc2c1`, the EC50 was 15.1 µM and the IC50 turned out to be 105 µM. The like results for `O/N=C(/CC(O)(C(F)(F)F)C(F)(F)F)c1ccccc1` were, in that order, over 200 µM and over 200 µM. For the compound `Cc1c(N(Cc2ccccc2)Cc2ccccc2)nc(S(C)(=O)=O)nc1S(C)(=O)=O`, the outcome was inactive. As for `CC1(C)CNC(=S)S1`, the EC50 is over 339 µM and the IC50 is over 339 µM. With `CCCCC(Sc1cc(Cl)c(C)cc1S(=O)(=O)Nc1n[nH]c(N)n1)C(=O)OC` (stereo unspecified), the EC50 was over 200 µM and the IC50 is over 100 µM. The like results for `C=CCn1c(-c2ccc(-c3cs/c(=N\N=O)n3CC=C)cc2)cs/c1=N\N=O` were, in that order, over 100 µM and over 100 µM.

Turning to `CC1(C)CC(=O)C(CC2C(=O)c3ccccc3C2=O)C(=O)C1`, the EC50 was over 120 µM and the IC50 is over 120 µM.

Regarding `CCNc1nc(NC(C)C)nc(-c2ccncc2)n1`, the EC50 is over 200 µM and the half-inhibitory concentration (IC50) worked out at 138 µM. The like results for `C/C(=N/OC(=O)N(C)C)c1ccc(Cl)cc1Cl` were, in that order, over 200 µM and 105 µM. The corresponding values for `N=C(N)N1CCC(N2CCOCC2)CC1` are over 200 µM and over 200 µM.

Regarding `CC1=CC(=O)/C(=C/n2c(=S)[nH]c3ccccc32)C(=O)O1`, the EC50 is over 200 µM and the IC50 was over 200 µM. With `Nc1cc(S(=O)(=O)O)c(O)c2c1C(=O)c1c(O)c(S(=O)(=O)O)cc(N)c1C2=O`, the outcome was inactive.

`CC[C@@]1(O)C[C@H](OC2CC(N(C)C)C(OC3CC(O)C(OC4CCC(=O)C(C)O4)C(C)O3)C(C)O2)c2c(cc3c(c2O)C(=O)c2c(O)ccc(O)c2C3=O)[C@H]1C(=O)OC` (stereo partly specified): the EC50 is over 6.31 µM; the IC50 was 0.0055 µM and 0.0158 µM. In the case of `O=C(NN1C(=O)C(Cl)C1c1cccc(Cl)c1)c1ccccc1O` (stereo unspecified), the EC50 was over 74.1 µM and the IC50 was over 74.1 µM. `CC1C=CC(O)[C@]2(CO)CC3(CCC12)OCCO3` (stereo partly specified): the outcome was inactive.

`CC1(OCc2ccccc2)C(=O)N2C1NCC2(C)C` (stereo unspecified): the EC50 is over 251 µM and the IC50 stood at 117 µM. The like results for `COCOc1cc(OCOC)cc(C(=O)Oc2ccccc2)c1` were, in that order, over 200 µM and over 200 µM. With `C[C@H](C(=O)C12CC3CC(CC(C3)C1)C2)[C@H](O)c1ccccc1`, the outcome was inactive. Consider `O=S(=O)(O)c1cc(NC(=S)c2ccc3cccnc3c2O)ccc1/C=C/c1ccc(NC(=S)c2ccc3cccnc3c2O)cc1S(=O)(=O)O`, for which the EC50 is 13.8 µM and the IC50 stood at 72.4 µM.

As to `COc1ccc(C=C(C(C)=O)C(C)=O)cc1`, the EC50 was over 437 µM and the IC50 was determined as 58.9 µM. The like results for `Nc1ncc(N)c(N)n1` were, in that order, over 200 µM and 132 µM. Regarding `O=c1c2cccc3c4ccccc4c4sc5ccccc5n1-c4c23`, the EC50 was over 11.5 µM and the IC50 is over 11.5 µM.

For `On1ccc(=S)c2ccccc21`, the EC50 is over 200 µM and the IC50 stood at 36.3 µM.

In the case of `O=c1cn[nH]c2c(Br)cccc12`, the EC50 was over 479 µM and the IC50 is 275 µM.

Take `C[C@@]1(O)C2/C(=N/O)C3CC1(c1ccccc1)CC(/C3=N/O)C2c1ccccc1` (stereo partly specified): the EC50 is over 100 µM and the IC50 is over 100 µM. As for `CNC1C(OC2C(OC3C(O)C(O)C(N=C(N)N)C(O)C3N=C(N)N)OC(C)C2(O)CO)OC(CO)C(O)C1O` (stereo unspecified), the outcome was inactive.

On to `NC(CSS(=O)(=O)O)=NCCCC1CCCCC1`, for which the EC50 is over 200 µM and the IC50 worked out at 102 µM. On to `Nc1nc(N)c(CCCCc2ccc([N+](=O)[O-])cc2)c(N)n1`, for which the outcome was inactive.

In the case of `COC(=O)[C@@]12CCCC(=O)[C@@H]1[C@H]1CCC[C@H]12`, the EC50 is 112 µM and the IC50 is over 200 µM.

For the compound `CC(=O)Oc1ccc2c(c1)c1c(=O)oc(N(C)C)nc1n2Cc1ccccc1`, the EC50 was over 200 µM and the IC50 was 120 µM. In the case of `CC(OC(C)(C)C)C(NC(=O)C(CCCCNC(=O)OC(C)(C)C)NC(=O)C(Cc1c[nH]c2ccccc12)NC(=O)OCc1ccccc1)C(=O)NC(Cc1ccccc1)C(=O)N(C)C1(C(=O)NC(Cc2ccccc2)C(=O)OCc2ccccc2)CCCC1` (stereo unspecified) (Cbz-WK(Boc)T(tBu)F[NMeAc5c]F-OBn; configuration not given here), the EC50 was over 50.1 µM and the IC50 turned out to be 38.9 µM. The corresponding values for `CON(C)C(=O)C1CCCO1` (stereo unspecified) are over 200 µM and over 200 µM. Turning to `O=[As]1(c2ccccc2)c2ccccc2Oc2ccccc21`, the EC50 is over 288 µM and the IC50 turned out to be 141 µM. The corresponding values for `Nc1nc2c(c(=O)[nH]1)N=C(COP(=O)(O)OP(=O)(O)O)CN2` are over 200 µM and 145 µM. The like results for `CN(C)c1ccc(-c2nc3c(=O)n(C)c(=O)n(C)c3nc2-c2ccc(N(C)C)cc2)cc1` were, in that order, over 200 µM and 126 µM. The corresponding values for `CN(C)c1ccc(N=C2N=C(Nc3ccccc3)C(=Nc3ccccc3)S2)cc1` are over 100 µM and 72.4 µM.

With `Cc1ccccc1N=Nc1c(-c2ccccc2)nn(C(=O)CC(=O)Nc2cccc(Cl)c2)c1-c1ccccc1`, the EC50 is over 25.1 µM and the IC50 was over 25.1 µM. For the compound `COc1ccc2c(c1)CC1c3c(cc4c(c3-2)OCO4)CCN1C` (stereo unspecified), the EC50 is over 589 µM and the half-inhibitory concentration (IC50) is 3.31 µM. The like results for `N#CC12CC=C(c3ccccc3)N=C1NC(c1ccccc1)=CC2` (stereo unspecified) were, in that order, over 200 µM and 23.4 µM. The corresponding values for `O=c1[nH]cc(CCl)c(=O)[nH]1` are over 200 µM and over 200 µM. The like results for `CC[C@@]1(O)C(=O)OCc2c1cc1n(c2=O)Cc2cc3cc(O)ccc3nc2-1` were, in that order, over 37.2 µM and 0.00832 µM. With `O=C(CC(=O)N1CCN(c2ccccn2)CC1)N1CCN(c2ccccn2)CC1`, the EC50 is over 97.7 µM and the IC50 is over 97.7 µM. In the case of `O=C(/C(=C/c1ccc(O)cc1)c1ccccc1)c1ccccc1`, the EC50 is over 120 µM and the IC50 worked out at 36.3 µM. For `CC(=O)c1ccccc1NC(=O)C(=O)C(C(=O)c1ccccc1-c1ccccc1)C1OC(=O)c2ccccc21` (stereo unspecified), the EC50 is over 50.1 µM and the IC50 came out at 26.9 µM. Turning to `Cc1[nH]n(-c2nc(O)c(-c3ccccc3)c(=O)[nH]2)c(=O)c1CCO`, the EC50 is over 200 µM and the IC50 is over 200 µM. For `COC(=O)c1c(CC(Cc2ccc3c(c2)CCCC3)C(=O)O)ccc2c1CCCC2` (stereo unspecified), the EC50 was over 200 µM and the IC50 was 58.9 µM. Take `[CH3][Sn]1([CH3])[O]C(=O)CCN=Cc2c(ccc3ccccc23)[O][Sn]([CH3])([CH3])[O]C(=O)CCN=Cc2c(ccc3ccccc23)[O]1`: the EC50 was over 200 µM and the IC50 is 20 µM. Regarding `C=CC1C(OC2OC(CO)C(O)C(O)C2O)OC=C(C(=O)OC)C1CC=O` (stereo unspecified), the EC50 was over 646 µM and the IC50 was over 646 µM.

Consider `Brc1ccc(-c2ccc(-c3ccc(Br)s3)s2)s1`, for which the EC50 is over 200 µM and the IC50 is over 200 µM. For the compound `COc1ccc2c(-c3ccc(O)cc3)c(Oc3ccccc3)c(=O)oc2c1`, the outcome was inactive.

Consider `NC(=O)c1c(NC=O)ncn1C1OCC(O)C(O)C1O` (stereo unspecified), for which the EC50 was over 200 µM and the half-maximal inhibitory concentration (IC50) is over 200 µM.

Take `CC(=O)OC1CC2C(=S)Nc3cc4c(cc3C(=O)N2C1)OCO4` (stereo unspecified): the EC50 is over 200 µM and the IC50 was over 200 µM. With `COC(=O)c1cc(C(CCl)c2cc(C(=O)OC)c(O)c(Br)c2C)c(C)c(Br)c1O`, the result was inactive.

As to `NC(=S=O)C(F)(F)C(F)(F)C(F)(F)F`, the EC50 was over 105 µM and the IC50 was 89.1 µM.

On to `Fc1ccc(C(=NCc2ccccc2)N2CCOCC2)cc1`, for which the EC50 was over 200 µM and the IC50 is over 200 µM.

On to `CCC(=O)C(C(C)/C=C/CCSc1ccccc1)C(O)CCCCCC(=O)OC` (stereo unspecified), for which the EC50 is over 200 µM and the IC50 was 36.3 µM. The corresponding values for `COc1cc2c(c(OC)c1OC)CCC1C(=O)NN=C21` (stereo unspecified) are over 912 µM and 102 µM. With `CC(Cc1ccccc1)Nc1ncnc2c1ncn2C1OC(CO)CC1O` (stereo unspecified), the outcome was inactive.

Consider `CCN(CC)CCCC(C)Nc1c2cc(OC)cc(C)c2nc2c(C)c(Cl)ccc12` (stereo unspecified), for which the outcome was inactive. Turning to `CC(C)c1nc2cc(C(F)(F)F)ccc2[nH]c1=O`, the EC50 is over 200 µM and the IC50 is 120 µM. The like results for `O=C1CSC(Cc2nc3ccccc3o2)=N1` were, in that order, over 200 µM and 4.79 µM. The like results for `Cn1c(=O)ccc2c1nc1ccccc1[n+]2[O-]` were, in that order, over 60.3 µM and over 60.3 µM. For the compound `COc1ccc(/C(CC2OC(=O)c3ccccc32)=N\NC(=O)C[N+](C)(C)C)cc1` (stereo unspecified), the EC50 is over 77.6 µM and the IC50 was found to be 24 µM. As to `O=C1Oc2ccccc2C(=O)/C1=C/N1C(=O)N/C(=C\c2cccc(O)c2)C1=O`, the EC50 is over 200 µM and the IC50 worked out at 148 µM.

As to `O=c1[nH]c(=O)n(C2CC(O)C(CO)O2)c2nc3ccc4cc5ccccc5cc4c3nc12` (stereo unspecified), the EC50 is over 50.1 µM and the IC50 was determined as 39.8 µM.

As to `CCOC(=O)C1=c2[nH]c3cccc4cccc(c43)n2C(=O)CC1`, the EC50 was over 200 µM and the IC50 amounted to 12.3 µM.

Regarding `O=c1[nH]c2cc([N+](=O)[O-])ccc2nc1/C=C(\O)c1ccc(Cl)cc1`, the EC50 is over 100 µM and the concentration for half-maximal inhibition (IC50) amounted to 87.1 µM. The like results for `CC(C)(c1cccs1)c1cscc1C(=O)O` were, in that order, over 200 µM and over 200 µM. On to `CCN(CC)c1ccc2c(-c3ccccc3C(=O)O)c3ccc(=[N+](CC)CC)cc-3oc2c1`, for which the EC50 is over 100 µM; the IC50 was 9.12 µM and 13.5 µM. `CC(=O)OCc1c2ccccc2c(C)c2c1cc(F)c1ccccc12`: the outcome was inactive. With `CC1(C)N=[N+]([O-])C1(C)C`, the EC50 was over 200 µM and the IC50 is over 200 µM.
